What all share (type): toxicity, cell-based
The subject of one data set is Fibroblast. Description: Incucyte cell viability with human fibroblast. Particulars: 10 µM, compound concentration 10 uM.
The test system of a further data set is HEK-293T. In words: Incucyte cell viability with HEK293T. Particulars: human, 10 µM, compound concentration 10 uM.
In a further data set the test system is U2OS. Description: Incucyte cell viability with U2OS. The note with it: human, 10 µM, compound concentration 10 uM.
Where [1] appears, read: 0 h, replicate number 2, timepoint 0 hours.
[2] abbreviates: 6 h, replicate number 1, timepoint 6 hours.
The mark [3] stands for this setting: 12 h, replicate number 1, timepoint 12 hours.
[4] abbreviates: 18 h, replicate number 1, timepoint 18 hours.
[5] abbreviates: 24 h, replicate number 1, timepoint 24 hours.
The mark [6] stands for this setting: 6 h, replicate number 2, timepoint 6 hours.
Where [7] appears, read: 12 h, replicate number 2, timepoint 12 hours.
Where [8] appears, read: 18 h, replicate number 2, timepoint 18 hours.
Where [9] appears, read: 24 h, replicate number 2, timepoint 24 hours.
Where [10] appears, read: 0 h, replicate number 1, timepoint 0 hours.

The text below walks through data of ChEMBL document CHEMBL5058564, “EUbOPEN Chemogenomics Library 2 (Incucyte)” (2022).
Note: unitless GR value; below 1 slowed growth and below 0 cell loss.

With `Cl.Cl.OCCOCCN1CCN(C(c2ccccc2)c2ccc(Cl)cc2)CC1` (stereo not drawn) [HYDROXYZINE HYDROCHLORIDE], the “Growth Rate” value with Fibroblast (setting [1]) is given as 0.31; in the data set on Fibroblast (setting [2]), 0.49; in the data set with Fibroblast (setting [3]) it was 0.82; in the data set on Fibroblast (setting [4]) it was 0.88; with Fibroblast (setting [5]) it was 0.77; with HEK-293T (setting [2]) it was 0.77. Further, the “Growth Rate” value turned out to be 0.15 in the data set with HEK-293T (setting [6]); 0.52 in the data set on HEK-293T (setting [3]); 0.45 with HEK-293T (setting [7]); 0.19 in the data set on HEK-293T (setting [4]); 0.39 in the data set on HEK-293T (setting [8]); 0.04 in the data set with HEK-293T (setting [5]). For the same molecule, the “Growth Rate” value was 0.32 in the data set with HEK-293T (setting [9]), -1 with U2OS (setting [1]) and 0.46 in the data set on U2OS (setting [2]).

Consider `CC(C)(C)c1cc(NC(=O)Nc2ccc(-c3cn4c(n3)sc3cc(OCCN5CCOCC5)ccc34)cc2)no1` [QUIZARTINIB], for which the “Growth Rate” value is -0.84 in the data set with Fibroblast (setting [10]); 0.43 in the data set with Fibroblast (setting [1]); 1 in the data set with Fibroblast (setting [7]); 0.89 in the data set with Fibroblast (setting [8]); 0.78 in the data set with Fibroblast (setting [9]); 0.2 with HEK-293T (setting [10]). Also, the “Growth Rate” value in the data set with HEK-293T (setting [2]) is on record as -0.18; in the data set with HEK-293T (setting [7]) it was -0.06; in the data set on HEK-293T (setting [8]), 0.17; with HEK-293T (setting [9]), 0.22; in the data set on U2OS (setting [2]), 0.41; in the data set on U2OS (setting [7]), 0.51. Further, the figures for the “Growth Rate” value with U2OS (setting [8]) and with U2OS (setting [9]) were 0.52 and 0.65, respectively.

Consider `O=C(O)c1ccccc1S(=O)(=O)NCCCCN1C(=O)c2cccc3cccc(c23)C1=O`, for which the “Growth Rate” value came to 0.28 with Fibroblast (setting [10]); 0.58 in the data set with Fibroblast (setting [1]); 0.71 with Fibroblast (setting [6]); 0.94 in the data set on Fibroblast (setting [7]); 0.79 in the data set with Fibroblast (setting [4]); 0.54 with HEK-293T (setting [10]). The “Growth Rate” value was found to be 0.31 with HEK-293T (setting [1]); 0.9 in the data set with HEK-293T (setting [3]); 0.98 in the data set with HEK-293T (setting [7]); 0.82 in the data set with HEK-293T (setting [4]); 0.89 with HEK-293T (setting [8]); 0.91 with HEK-293T (setting [5]). In addition, the “Growth Rate” value in the data set with U2OS (setting [10]) was 0.34; with U2OS (setting [1]) it was -0.33; with U2OS (setting [2]) it was 0.57; in the data set with U2OS (setting [6]), 0.12; in the data set with U2OS (setting [3]), 0.82; in the data set on U2OS (setting [7]), 0.64. Moreover, the “Growth Rate” value with U2OS (setting [4]) was 0.78; in the data set with U2OS (setting [8]), 0.75; in the data set on U2OS (setting [5]) it was 0.67; in the data set on U2OS (setting [9]), 0.75.

Turning to `CCNC1(C(N)=O)CCN(c2ncnc3c2nc(-c2ccccc2Cl)n3-c2ccc(Cl)cc2)CC1` [OTENABANT], the “Growth Rate” value was -0.61 with Fibroblast (setting [10]); 0.22 in the data set with Fibroblast (setting [1]); 0.96 in the data set with Fibroblast (setting [6]); -0.34 in the data set on Fibroblast (setting [3]); 1 in the data set on Fibroblast (setting [7]); 0.38 in the data set with Fibroblast (setting [4]). Also, the “Growth Rate” value in the data set on Fibroblast (setting [5]) is recorded as -0.07; with HEK-293T (setting [7]), 0.81; in the data set on U2OS (setting [10]) it was -0.85; in the data set with U2OS (setting [6]) it was 0.79; in the data set on U2OS (setting [7]), 0.93; in the data set with U2OS (setting [8]), 0.92. Besides, the “Growth Rate” value in the data set with U2OS (setting [9]) turned out to be 0.93.

For the molecule `COC(=O)[C@H]1[C@H]2C[C@H]3c4[nH]c5ccccc5c4CCN3C[C@H]2CC[C@@H]1O.Cl` [RAUWOLSCINE HYDROCHLORIDE], the “Growth Rate” value in the data set on Fibroblast (setting [1]) was -0.08; with Fibroblast (setting [2]), 0.83; in the data set with Fibroblast (setting [3]), 0.59; in the data set with HEK-293T (setting [10]), 0.51; in the data set with HEK-293T (setting [1]) it was 0.67; with HEK-293T (setting [2]), 0.76. Moreover, the “Growth Rate” value with HEK-293T (setting [3]) was 0.95; with U2OS (setting [10]) it was -0.57; in the data set on U2OS (setting [2]), 0.53; in the data set with U2OS (setting [3]), 0.61; in the data set on U2OS (setting [7]) it was 0.89; in the data set on U2OS (setting [4]) it was 0.79. The “Growth Rate” value amounted to 0.88 with U2OS (setting [8]) and 0.98 with U2OS (setting [9]).

With `C[C@@H](OC[C@@]1(c2ccccc2)CC[C@]2(CCC(=O)N2)CN1)c1cc(C(F)(F)F)cc(C(F)(F)F)c1` [ROLAPITANT], the “Growth Rate” value in the data set with Fibroblast (setting [1]) is 0.28; in the data set with Fibroblast (setting [2]) it was -0.04; in the data set with Fibroblast (setting [3]) it was 0.02; in the data set on Fibroblast (setting [7]), 0.68; in the data set with Fibroblast (setting [4]), 0.57; in the data set with Fibroblast (setting [5]) it was 0.27. Besides, the “Growth Rate” value in the data set on HEK-293T (setting [6]) is reported as 0.73; in the data set with HEK-293T (setting [3]), 0.83; in the data set on HEK-293T (setting [7]) it was 0.57; in the data set with HEK-293T (setting [4]) it was 0.88; in the data set on HEK-293T (setting [8]) it was 0.81; in the data set with HEK-293T (setting [5]), 0.89. Further, the “Growth Rate” value in the data set with HEK-293T (setting [9]) is reported as 1; in the data set on U2OS (setting [2]), -0.32; with U2OS (setting [6]) it was 0.54; in the data set with U2OS (setting [7]) it was 0.49; in the data set on U2OS (setting [4]), 0.79; with U2OS (setting [8]), 0.63. The “Growth Rate” value is on record as 0.84 with U2OS (setting [5]) and 0.64 in the data set with U2OS (setting [9]).

With `CCCN(CCC)[C@@H]1CCc2ccc3[nH]c(C#N)cc3c2C1.Cl`, the “Growth Rate” value is on record as -0.06 in the data set with Fibroblast (setting [1]); 0.01 with Fibroblast (setting [2]); 0.97 with Fibroblast (setting [4]); 0.95 in the data set on Fibroblast (setting [5]); 0.55 in the data set on HEK-293T (setting [10]); 0.54 with HEK-293T (setting [1]). In addition, the “Growth Rate” value came out at 0.81 with HEK-293T (setting [2]); 0.81 with HEK-293T (setting [3]); 1 in the data set on HEK-293T (setting [5]); 0.95 in the data set with HEK-293T (setting [9]); 0.61 in the data set on U2OS (setting [10]); 0.9 with U2OS (setting [1]). The “Growth Rate” value in the data set with U2OS (setting [2]) is listed as 0.8; in the data set on U2OS (setting [4]), 0.73; with U2OS (setting [5]), 0.95.

In the case of `Cc1cc(CN)cc(C)c1-c1ncn(C)c1-c1cncn1C`, the “Growth Rate” value was 0.66 in the data set with Fibroblast (setting [10]); -0.16 in the data set with Fibroblast (setting [1]); 0.41 in the data set on Fibroblast (setting [2]); 0.03 with HEK-293T (setting [10]); -0.09 in the data set on HEK-293T (setting [1]); 0.88 with HEK-293T (setting [3]). The “Growth Rate” value with HEK-293T (setting [5]) is reported as 0.89; with U2OS (setting [10]) it was -0.39; in the data set with U2OS (setting [1]), 0.16; with U2OS (setting [2]) it was 0.65; in the data set on U2OS (setting [6]), 0.66; in the data set with U2OS (setting [3]), 0.71. Besides, the “Growth Rate” value is given as 0.95 with U2OS (setting [7]), 0.74 with U2OS (setting [4]) and 0.73 in the data set with U2OS (setting [5]).
